Reference: ChEMBL document CHEMBL3885881, “DrugMatrix”

Species on record: Rattus norvegicus
Experiment: DrugMatrix - Regimen: Daily Repeat
Type: toxicity, organism-based, Sprague-Dawley
Set-up: regimen Daily Repeat, gender Male, age 6-8 weeks
Conditions: in vivo, po, route oral GAVAGE, vehicle 100 % WATER; for ABSOLUTE BASOPHIL / ABSOLUTE EOSINOPHIL / ABSOLUTE LYMPHOCYTE / ABSOLUTE MONOCYTE / ABSOLUTE SEGMENTED NEUTROPHIL / BASOPHIL / EOSINOPHIL / ERYTHROCYTE COUNT / HEMATOCRIT / HEMOGLOBIN / LEUKOCYTE COUNT / LYMPHOCYTE / MEAN CORPUSCULAR HEMOGLOBIN / MEAN CORPUSCULAR HEMOGLOBIN CONCENTRATION / MEAN CORPUSCULAR VOLUME / MONOCYTE / NEUTROPHIL / NUCLEATED RED BLOOD CELLS / PLATELET COUNT: tissue Blood; for ALANINE AMINOTRANSFERASE / ALBUMIN / ALKALINE PHOSPHATASE / ASPARTATE AMINOTRANSFERASE / BLOOD UREA NITROGEN / CARBON DIOXIDE / CHLORIDE / CHOLESTEROL / CREATINE PHOSPHOKINASE / CREATININE / GLUCOSE / LACTATE DEHYDROGENASE / LIPASE / PHOSPHORUS / POTASSIUM / SODIUM / TOTAL BILIRUBIN / TOTAL PROTEIN / URIC ACID: tissue Plasma
[1] = 4 mg/kg, 72 h, dose level Low, time 3 day
[2] = 4 mg/kg, 120 h, dose level Low, time 5 day
[3] = 1100 mg/kg, 72 h, dose level High, time 3 day
[4] = 1100 mg/kg, 120 h, dose level High, time 5 day

COc1ccnc(C[S+]([O-])c2nc3ccc(OC(F)F)cc3[nH]2)c1OC (configuration not stated) [PANTOPRAZOLE]
ABSOLUTE BASOPHIL [1]: 0 CELLS/uL
ABSOLUTE EOSINOPHIL [1]: 0 CELLS/uL
ABSOLUTE LYMPHOCYTE [1]: 12700.33 CELLS/uL
ABSOLUTE MONOCYTE [1]: 129 CELLS/uL
ABSOLUTE SEGMENTED NEUTROPHIL [1]: 970.67 CELLS/uL
BASOPHIL [1]: 0%
EOSINOPHIL [1]: 0%
ERYTHROCYTE COUNT [1]: 5.41 x10E6/uL
HEMATOCRIT [1]: 34.33%
HEMOGLOBIN [1]: 13.7 G/DL
LEUKOCYTE COUNT [1]: 13.8 x10E3/uL
LYMPHOCYTE [1]: 91.33%
MEAN CORPUSCULAR HEMOGLOBIN [1]: 25.37 pg
MEAN CORPUSCULAR HEMOGLOBIN CONCENTRATION [1]: 39.93 G/DL
MEAN CORPUSCULAR VOLUME [1]: 63.43 fL
MONOCYTE [1]: 1%
NEUTROPHIL [1]: 7.67%
NUCLEATED RED BLOOD CELLS [1]: 0.67 /100WBC
PLATELET COUNT [1]: 1322.33 x10E3/uL
ALANINE AMINOTRANSFERASE [1]: 47 u/L
ALBUMIN [1]: 4.07 G/DL
ALKALINE PHOSPHATASE [1]: 370.67 u/L
ASPARTATE AMINOTRANSFERASE [1]: 94 u/L
BLOOD UREA NITROGEN [1]: 15.67 mg/dL
CARBON DIOXIDE [1]: 25.67 mmol/L
CHLORIDE [1]: 102.67 MEQ/L
CHOLESTEROL [1]: 70.33 mg/dL
CREATINE PHOSPHOKINASE [1]: 679.33 u/L
CREATININE [1]: 0.14 mg/dL
GLUCOSE [1]: 153.67 mg/dL
LACTATE DEHYDROGENASE [1]: 404.33 u/L
LIPASE [1]: 9 u/L
PHOSPHORUS [1]: 13.8 mg/dL
POTASSIUM [1]: 7.04 MEQ/L
SODIUM [1]: 146.43 MEQ/L
TOTAL BILIRUBIN [1]: 0.23 mg/dL
TOTAL PROTEIN [1]: 5.67 G/DL
URIC ACID [1]: 1.7 mg/dL
ABSOLUTE BASOPHIL [2]: 0 CELLS/uL
ABSOLUTE EOSINOPHIL [2]: 43.33 CELLS/uL
ABSOLUTE LYMPHOCYTE [2]: 13938.33 CELLS/uL
ABSOLUTE MONOCYTE [2]: 59 CELLS/uL
ABSOLUTE SEGMENTED NEUTROPHIL [2]: 859.33 CELLS/uL
BASOPHIL [2]: 0%
EOSINOPHIL [2]: 0.33%
ERYTHROCYTE COUNT [2]: 5.27 x10E6/uL
HEMATOCRIT [2]: 34.2%
HEMOGLOBIN [2]: 13.7 G/DL
LEUKOCYTE COUNT [2]: 14.9 x10E3/uL
LYMPHOCYTE [2]: 93.33%
MEAN CORPUSCULAR HEMOGLOBIN [2]: 26.07 pg
MEAN CORPUSCULAR HEMOGLOBIN CONCENTRATION [2]: 40.07 G/DL
MEAN CORPUSCULAR VOLUME [2]: 65.03 fL
MONOCYTE [2]: 0.33%
NEUTROPHIL [2]: 6%
NUCLEATED RED BLOOD CELLS [2]: 0.33 /100WBC
PLATELET COUNT [2]: 1411.33 x10E3/uL
ALANINE AMINOTRANSFERASE [2]: 54.67 u/L
ALBUMIN [2]: 4.17 G/DL
ALKALINE PHOSPHATASE [2]: 396 u/L
ASPARTATE AMINOTRANSFERASE [2]: 114.33 u/L
BLOOD UREA NITROGEN [2]: 17.67 mg/dL
CARBON DIOXIDE [2]: 26 mmol/L
CHLORIDE [2]: 102 MEQ/L
CHOLESTEROL [2]: 60.67 mg/dL
CREATINE PHOSPHOKINASE [2]: 690.67 u/L
CREATININE [2]: 0.13 mg/dL
GLUCOSE [2]: 144 mg/dL
LACTATE DEHYDROGENASE [2]: 666.67 u/L
LIPASE [2]: 9 u/L
PHOSPHORUS [2]: 14.27 mg/dL
POTASSIUM [2]: 6.77 MEQ/L
SODIUM [2]: 143.77 MEQ/L
TOTAL BILIRUBIN [2]: 0.2 mg/dL
TOTAL PROTEIN [2]: 5.8 G/DL
URIC ACID [2]: 1.57 mg/dL
ABSOLUTE BASOPHIL [3]: 0 CELLS/uL
ABSOLUTE EOSINOPHIL [3]: 0 CELLS/uL
ABSOLUTE LYMPHOCYTE [3]: 16363.67 CELLS/uL
ABSOLUTE MONOCYTE [3]: 197 CELLS/uL
ABSOLUTE SEGMENTED NEUTROPHIL [3]: 1639.33 CELLS/uL
BASOPHIL [3]: 0%
EOSINOPHIL [3]: 0%
ERYTHROCYTE COUNT [3]: 5.69 x10E6/uL
HEMATOCRIT [3]: 35.37%
HEMOGLOBIN [3]: 14 G/DL
LEUKOCYTE COUNT [3]: 18.2 x10E3/uL
LYMPHOCYTE [3]: 90.33%
MEAN CORPUSCULAR HEMOGLOBIN [3]: 24.67 pg
MEAN CORPUSCULAR HEMOGLOBIN CONCENTRATION [3]: 39.57 G/DL
MEAN CORPUSCULAR VOLUME [3]: 62.3 fL
MONOCYTE [3]: 1%
NEUTROPHIL [3]: 8.67%
NUCLEATED RED BLOOD CELLS [3]: 0.33 /100WBC
PLATELET COUNT [3]: 1283.67 x10E3/uL
ALANINE AMINOTRANSFERASE [3]: 51.67 u/L
ALBUMIN [3]: 4.03 G/DL
ALKALINE PHOSPHATASE [3]: 372.67 u/L
ASPARTATE AMINOTRANSFERASE [3]: 89 u/L
BLOOD UREA NITROGEN [3]: 17 mg/dL
CARBON DIOXIDE [3]: 29 mmol/L
CHLORIDE [3]: 98.67 MEQ/L
CHOLESTEROL [3]: 105.67 mg/dL
CREATINE PHOSPHOKINASE [3]: 255 u/L
CREATININE [3]: 0.16 mg/dL
GLUCOSE [3]: 134.33 mg/dL
LACTATE DEHYDROGENASE [3]: 182.67 u/L
LIPASE [3]: 11 u/L
PHOSPHORUS [3]: 12.2 mg/dL
POTASSIUM [3]: 7.39 MEQ/L
SODIUM [3]: 142.4 MEQ/L
TOTAL BILIRUBIN [3]: 0.23 mg/dL
TOTAL PROTEIN [3]: 5.67 G/DL
URIC ACID [3]: 1.67 mg/dL
ABSOLUTE BASOPHIL [4]: 0 CELLS/uL
ABSOLUTE EOSINOPHIL [4]: 57.33 CELLS/uL
ABSOLUTE LYMPHOCYTE [4]: 9481.67 CELLS/uL
ABSOLUTE MONOCYTE [4]: 24 CELLS/uL
ABSOLUTE SEGMENTED NEUTROPHIL [4]: 670.33 CELLS/uL
BASOPHIL [4]: 0%
EOSINOPHIL [4]: 0.33%
ERYTHROCYTE COUNT [4]: 5.57 x10E6/uL
HEMATOCRIT [4]: 33.33%
HEMOGLOBIN [4]: 13.7 G/DL
LEUKOCYTE COUNT [4]: 10.23 x10E3/uL
LYMPHOCYTE [4]: 91.67%
MEAN CORPUSCULAR HEMOGLOBIN [4]: 24.57 pg
MEAN CORPUSCULAR HEMOGLOBIN CONCENTRATION [4]: 41.13 G/DL
MEAN CORPUSCULAR VOLUME [4]: 59.83 fL
MONOCYTE [4]: 0.33%
NEUTROPHIL [4]: 7.67%
NUCLEATED RED BLOOD CELLS [4]: 0 /100WBC
PLATELET COUNT [4]: 1302.33 x10E3/uL
ALANINE AMINOTRANSFERASE [4]: 40.33 u/L
ALBUMIN [4]: 4.33 G/DL
ALKALINE PHOSPHATASE [4]: 318 u/L
ASPARTATE AMINOTRANSFERASE [4]: 84 u/L
BLOOD UREA NITROGEN [4]: 14.67 mg/dL
CARBON DIOXIDE [4]: 27 mmol/L
CHLORIDE [4]: 102.5 MEQ/L
CHOLESTEROL [4]: 129.33 mg/dL
CREATINE PHOSPHOKINASE [4]: 241.33 u/L
CREATININE [4]: 0.19 mg/dL
GLUCOSE [4]: 122.33 mg/dL
LACTATE DEHYDROGENASE [4]: 148 u/L
LIPASE [4]: 11.67 u/L
PHOSPHORUS [4]: 9.87 mg/dL
POTASSIUM [4]: 5.71 MEQ/L
SODIUM [4]: 145.65 MEQ/L
TOTAL BILIRUBIN [4]: 0.27 mg/dL
TOTAL PROTEIN [4]: 6.13 G/DL
URIC ACID [4]: 0.47 mg/dL
